Assay results published in PubChem BioAssay AID2305 (GlaxoSmithKline (GSK), 2010).

System: P. falciparum 3D7 growth, pLDH absorbance
Assay: blood-stage malaria parasite growth potency – strain 3D7, dose response (AID 2305)

With CCC(C)CC(=O)Nc1ccc(OC)c(S(=O)(=O)N[C@@H]2CCN(C#N)C2)c1 (stereo partly drawn) the IC50 was 1490 nM.

With COc1ccc(OCCCN2CCN(CC(c3ccc(F)cc3)N3CCN(C(C)C)CC3)CC2)c2ccccc12 (stereo not drawn) the IC50 was 650 nM.

CCOC(=O)CNCC(=O)c1ccc(OCc2ccccc2)cc1 showed an IC50 of 160 nM.

In the case of CCOc1c(Br)cc(Br)cc1CNCCCCNc1nc2ccccc2[nH]1, the IC50 is reported as 390 nM.

O=C(NC1CCC(N2CCCC(OCc3ccccc3)C2)CC1)c1cc2ccccc2[nH]1 (stereo not drawn) showed an IC50 of 1210 nM.

COc1ccc2cc(CNCCCCCCNCc3ccc4cc(OC)ccc4c3)ccc2c1 gave an IC50 of 620 nM.

O=C(NC(c1ccc(Cl)cc1)c1ccc2cccnc2c1O)c1ccccc1 (stereo not drawn) showed an IC50 of 560 nM.

For COc1ccc(Br)cc1C1[C@@H]2C(=O)N(c3ccc(Br)cc3)C(=O)[C@@H]2C2(C(=O)O)CC(OCc3ccccc3)CN12 (stereo partly drawn), the IC50 was 190 nM.

With Cc1sc(N2CCCCC2)nc1C(=O)Nc1ccc(F)cc1C(F)(F)F the IC50 was 1150 nM.

Compound CCC(C)NCC(O)(c1ccc(Cl)cc1)c1ccc(Cl)cc1 (stereo not drawn) has an IC50 of 840 nM.

Compound O=C(CSc1ccccn1)Nc1c(F)cccc1F has an IC50 of 1210 nM.

For O=C(Nc1cccc(-c2nn3ccccc3c2-c2ccnc(Nc3ccc(NCCCN4CCOCC4)c(F)c3)n2)c1)c1c(F)cccc1F, the IC50 was 260 nM.

For CC(=NNC(=S)NC(c1ccccc1)c1ccccc1)c1ccccn1, the IC50 was 900 nM.

COc1cc(-c2cc(-c3ccc(S(C)(=O)=O)cc3)cnc2N)ccc1O was tested, and the IC50 was 100 nM.

CN=C(Nc1c(Cl)cccc1Cl)N(C)C gave an IC50 of 820 nM.

CCOc1ccc(C(C)NC(=O)C2COc3ccccc3O2)cc1OCC (stereo not drawn) was tested, and the IC50 was 900 nM.

Compound COc1ccc(NC(=O)[C@H](C)Nc2cc(C)nc(NCC3CCCCC3)n2)cc1 has an IC50 of 1280 nM.

For COc1cc2nc(N3CCC(NC(=O)c4cccc(N(C)C)c4)CC3)nc(N)c2cc1OC, the IC50 was 610 nM.

Cc1cc(-c2ccc3occ(CCN)c3c2)cnc1N gave an IC50 of 880 nM.

For Cc1cc(N[C@@H](Cc2ccccc2)C(=O)NCc2cccs2)nc(Nc2ccccc2)n1, the IC50 was 1240 nM.

Work on O=C(/C=C/c1ccc(Cl)c(Cl)c1)N1CC[C@H]2C[C@H](N3CCC(c4c[nH]c5ccccc45)CC3)CC[C@@H]2C1 yielded an IC50 of 170 nM.

In the case of CCN(CC)CCOc1ccc(C(O)(C#CC(O)(c2ccccc2)c2ccc(OCCN(CC)CC)cc2)c2ccccc2)cc1 (stereo not drawn), the IC50 is reported as 1310 nM.

With Cc1[nH]nc2cc(Nc3ccnc(Nc4ccc(CN5CCOCC5)cc4)n3)ccc12 the IC50 was 950 nM.

With S=C(NCCN1CCOCC1)Nc1ccccc1 the IC50 was 1020 nM.

In the case of CC(C)(C)c1ccc(CNC(=O)/C=C/c2ccc(CNC3CCNCC3)cc2)cc1, the IC50 is reported as 1090 nM.

With CNCCN(C)C(=O)Oc1c(Br)c(C)nc(C)c1-c1ccc(Oc2ccc(OC(F)(F)F)cc2)cc1 the IC50 was 110 nM.

CCN(CC)CCN(Cc1ccc(-c2ccc(Cl)s2)cc1)C(=O)Cn1c(CCc2cccc(F)c2F)nc(=O)c2ccccc21 was tested, and the IC50 was 1140 nM.

Cc1[nH]nc2ccc(-c3ccc4nccc(N5CCC(N)CC5)c4c3)cc12 gave an IC50 of 590 nM.

Compound CCOc1cc(CC)ccc1C1CCN(CCN2CCC(CNC(=O)c3ccc(-c4ccc(C#N)cc4)cc3)CC2)CC1 has an IC50 of 710 nM.

For Cc1cc2c3c(N)nc(N)nc3ccc2n1C, the IC50 was 90 nM.

COc1cccc(-c2cnc(-c3ccncc3)nc2C2CCN(Cc3ccc(NC(C)=O)cc3)CC2)c1 showed an IC50 of 1500 nM.

Work on Cc1nc2ccc3ccc(CNc4ccc(C(=O)N[C@@H](CCC(=O)O)C(=O)O)cc4)cc3c2c(=O)[nH]1 yielded an IC50 of 180 nM.

COc1ccc(CNCc2ccc(-c3ccc(-c4nc5ccc(C(F)(F)F)cc5[nH]4)cc3)cc2)cc1 gave an IC50 of 130 nM.

O=C(/C=C/c1ccc(Cl)c(Cl)c1)NCCCCCN1CCC(NC(=S)Nc2ccc(Cl)cc2Cl)CC1 showed an IC50 of 740 nM.

C=C[C@H]1CN2CC[C@H]1C[C@H]2[C@H](O)c1cc(/C=C/c2ccc(F)cc2)nc2ccc(OC)cc12 was tested, and the IC50 was 30 nM.

In the case of COc1ccc(NC(=O)c2ccc(NC(=O)c3ccc(Cl)cc3)cc2)cc1N1CCN(C)CC1, the IC50 is reported as 850 nM.

NC(N)=NC(=O)Nc1ccc(Cl)c(Cl)c1 showed an IC50 of 1040 nM.

CC(C)Oc1ccc(C=CC(=O)Nc2noc3ccccc23)cc1 gave an IC50 of 290 nM.

Work on Cc1ccccc1C1CCN(c2ccc(C(=O)NC3CC3)cn2)CC1 yielded an IC50 of 850 nM.

For COc1cc(C(=O)N2CCN(C(C)C)CC2)ccc1CN(C)CCCN1CCN(c2cccc(Cl)c2Cl)CC1, the IC50 was 780 nM.

O=c1cc(NCCCCNCc2ccc(Br)c(Br)c2)[nH]c2ccccc12 gave an IC50 of 860 nM.

O=C(O)c1ccc(-c2cnc3ccc(NC4CCC(O)CC4)nn23)cc1 (stereo not drawn) was tested, and the IC50 was 1000 nM.

CN(c1ccc(NC(=O)c2cccc(F)c2)cc1)C1CCCN(Cc2cccc(O)c2)C1 (stereo not drawn) was tested, and the IC50 was 1300 nM.

Compound O=C(/C=C/c1ccc(Cl)c(Cl)c1)NCCCCCN1CC[C@H](NC(=O)c2ccc3c(c2)OCO3)C1 has an IC50 of 940 nM.

For CCNc1cc(C(=O)N[C@@H](Cc2ccccc2)[C@H](O)CNC2(C)CCCCC2)cc(N2CCCCS2(=O)=O)c1, the IC50 was 160 nM.

Compound Cc1ccc2nc(C)cc(NC(=O)Nc3ccc(N(C)C)cc3)c2c1 has an IC50 of 540 nM.

CN1CCc2ccc(NC(=O)Nc3cccc([N+](=O)[O-])c3)cc2C1 was tested, and the IC50 was 1100 nM.

COc1ccccc1Nc1nc(C)cc(NCc2ccc(-n3ccnc3)cc2)n1 was tested, and the IC50 was 1050 nM.
